According to patent publication US10294202B2, “Pyrrolidinones as herbicides” (FMC Corporation, priority 2013, dated 2019):

Legend:
barnyardgrass [1] = experiment: Test A pre-/postemergence herbicide test; assay type: in vivo, Echinochloa crus-galli
How it was run: (§1)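 Seeds in loam–sand blend received preemergence directed soil spray; separately, plants 2–10 cm at one- to two-leaf stage received postemergence spray, both with test chemicals in non-phytotoxic solvent with surfactant. After ~10 days in greenhouse, injury rated visually against untreated controls, 0 (no effect) to 100 (complete control).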

kochia = experiment: Test A pre-/postemergence herbicide test; assay type: in vivo, Kochia scoparia; settings: for Plant response rating, Kochia: 125 g ai/ha
How it was run: as §1

ragweed = experiment: Test A pre-/postemergence herbicide test; assay type: in vivo, Ambrosia elatior; settings: for Plant response rating, Ragweed: 125 g ai/ha
How it was run: as §1

ryegrass, Italian = experiment: Test A pre-/postemergence herbicide test; assay type: in vivo, Lolium multiflorum; settings: for Plant response rating, Ryegrass, Italian: 125 g ai/ha
How it was run: as §1

giant foxtail = experiment: Test A pre-/postemergence herbicide test; assay type: in vivo, Setaria faberii
How it was run: as §1

pigweed = experiment: Test A pre-/postemergence herbicide test; assay type: in vivo, Amaranthus retroflexus; settings: for Plant response rating, Pigweed: 125 g ai/ha
How it was run: as §1

wheat = experiment: Test A pre-/postemergence herbicide test; assay type: in vivo, Triticum aestivum; settings: Postemergence, 125 g ai/ha; visual rating on 0 to 100 scale (0 no effect, 100 complete control), approx. 10 days
How it was run: as §1

corn = experiment: Test A pre-/postemergence herbicide test; assay type: in vivo, Zea mays; settings: Postemergence
How it was run: as §1

blackgrass = experiment: Test A postemergence herbicide test; assay type: in vivo, Alopecurus myosuroides
How it was run: (§2)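 Ratings compare treated with untreated plants roughly 10 days after a postemergence application made at the one- to two-leaf stage. Scoring uses 0–100, where 0 means no effect and 100 complete control.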

galium = experiment: Test A postemergence herbicide test; assay type: in vivo, Galium aparine; settings: 125 g ai/ha, visual rating on 0 to 100 scale (0 no effect, 100 complete control), approx. 10 days
How it was run: as §2

rice [2] = experiment: Test B flooded paddy test; assay type: in vivo, Oryza sativa; settings: 1000 g ai/ha, Flood; scale of 0 to 100 where 0 is no effect and 100 is complete control
How it was run: (§3)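 Visual ratings from 0, meaning no effect, up to 100, meaning complete control, were made by comparison with untreated controls 13 to 15 days after treatment. Test compounds went straight into floodwater standing 3 cm over the soil of pots holding 2-leaf seedlings.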

sedge, umbrella [3] = experiment: Test B flooded paddy test; assay type: in vivo, Cyperus difformis; settings: 1000 g ai/ha, Flood; scale of 0 to 100 where 0 is no effect and 100 is complete control
How it was run: as §3

ducksalad [4] = experiment: Test B flooded paddy test; assay type: in vivo, Heteranthera limosa; settings: 1000 g ai/ha, Flood; scale of 0 to 100 where 0 is no effect and 100 is complete control
How it was run: as §3

barnyardgrass [5] = experiment: Test B flooded paddy test; assay type: in vivo, Echinochloa crus-galli; settings: 1000 g ai/ha, Flood; scale of 0 to 100 where 0 is no effect and 100 is complete control
How it was run: as §3

rice [6] = experiment: Test C flooded paddy test; assay type: in vivo, Oryza sativa; settings: Flood
How it was run: (§4)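 Plants grown to the 2-leaf stage; pots flooded to 3 cm above soil and compound applied directly into the paddy water, depth kept throughout. Greenhouse 13 to 15 days, then visual rating vs untreated controls on 0–100 scale (0 no effect, 100 complete control); dash means no result.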

sedge, umbrella [7] = experiment: Test C flooded paddy test; assay type: in vivo, Cyperus difformis; settings: Flood
How it was run: as §4

ducksalad [8] = experiment: Test C flooded paddy test; assay type: in vivo, Heteranthera limosa; settings: Flood
How it was run: as §4

barnyardgrass [9] = experiment: Test C flooded paddy test; assay type: in vivo, Echinochloa crus-galli; settings: Flood
How it was run: as §4

corn (ZEAMD) = experiment: Test H preemergence mixture test (Colby); assay type: in vivo, Zea mays; settings: applied alone, 21 d, mean of three replicates, scale 0-100
Text: (§5) Colby's Equation was used to determine the herbicidal effects expected from the mixtures. Colby's Equation (Colby, S. R. “Calculating Synergistic and Antagonistic Responses of Herbicide Combinations,” Weeds, 15(1), pp 20-22 (1967)) calculates the expected additive effect of herbicidal mixtures and for two active ingredients is of the form: Pa+b=Pa+Pb−(PaPb/100)
(§6) where • Pa+b is the percentage effect of the mixture expected from additive contribution of the individual components: • Pa is the observed percentage effect of the first active ingredient at the same use rate as in the mixture, and • Pb is the observed percentage effect of the second active ingredient at the same use rate as in the mixture. In the following Tables, rates are shown in grams of active ingredient per hectare (g a.i./ha); “Obsd.” is the observed effect. “Exp.” is the expected effect calculated from Colby's Equation.
(§7) This test evaluated the effect of mixtures of compound 80 with several commercial herbicides on four plant species. Seeds of plant species selected from corn (ZEAMD, Zea mays), soybean (GLXMA, Glycine max), waterhemp (common waterhemp, AMATA, Amaranthus rudis), and giant foxtail (SETFA, Setaria faberii) were planted into a silt loam soil and treated preemergence with test chemicals formulated in a non-phytotoxic solvent mixture which included a surfactant and applied using a volume of 281 L/ha. Each treatment was replicated three times. Treated plants and controls were maintained in a greenhouse using supplemental lighting to maintain a photoperiod of about 16 h; daytime and nighttime temperatures were about 24-30° C. and 19-21° C., respectively. Nutrients were applied using a balanced fertilizer applied through the watering system. At 21 d after treatment, all species were compared to controls and visually evaluated. Plant response ratings were calculated as the means of the three replicates, are summarized in Tables H1 through H5, and are based on a scale of 0 to 100 where 0 is no effect and 100 is complete control. A dash (-) response means no test result. The Expected (Exp.) results were calculated using Colby's Equation as described for Test G above.

soybean (GLXMA) = experiment: Test H preemergence mixture test (Colby); assay type: in vivo, Glycine max; settings: applied alone, 21 d, mean of three replicates, scale 0-100
Text: as §5, §6, §7

waterhemp (AMATA) = experiment: Test H preemergence mixture test (Colby); assay type: in vivo, Amaranthus rudis; settings: applied alone, 21 d, mean of three replicates, scale 0-100
Text: as §5, §6, §7

giant foxtail (SETFA) = experiment: Test H preemergence mixture test (Colby); assay type: in vivo, Setaria faberii; settings: applied alone, 21 d, mean of three replicates, scale 0-100
Text: as §5, §6, §7

[10] = Postemergence, 125 g ai/ha, visual rating on 0 to 100 scale (0 no effect, 100 complete control), approx. 10 days
[11] = Postemergence, 500 g ai/ha, 0 to 100 scale (0 no effect, 100 complete control)
[12] = Preemergence, 125 g ai/ha, 0 to 100 scale where 0 is no effect and 100 is complete control
[13] = Preemergence, 500 g ai/ha, visual rating on 0 to 100 scale (0 no effect, 100 complete control)
[14] = Postemergence, visual rating on 0 to 100 scale (0 no effect, 100 complete control), approx. 10 days
[15] = Preemergence, 0 to 100 scale where 0 is no effect and 100 is complete control
[16] = 125 g ai/ha, visual rating on 0 to 100 scale (0 no effect, 100 complete control), approx. 10 days
[17] = 500 g ai/ha, 0 to 100 scale (0 no effect, 100 complete control)
[18] = 125 g ai/ha, scale of 0 to 100 where 0 is no effect and 100 is complete control, 13 to 15 days
[19] = 250 g ai/ha, scale of 0 to 100 where 0 is no effect and 100 is complete control, 13 to 15 days

O=C1NCC(c2cccc(C(F)(F)F)c2)C1C(=O)Nc1cccc(Cl)c1F (centres unmarked) [Compound 344]
Plant response rating, Barnyardgrass (barnyardgrass [1]; [10]): 60
Plant response rating, Barnyardgrass (barnyardgrass [1]; [11]): 90
Plant response rating, Barnyardgrass (barnyardgrass [1]; [12]): 50
Barnyardgrass plant response rating (barnyardgrass [1]; [13]): 90
Plant response rating, Kochia (kochia; [14]): 0
Plant response rating, Kochia (kochia; [15]): 0
Kochia plant response rating (kochia; [13]): 0
Plant response rating, Ragweed (ragweed; [14]): 0
Plant response rating, Ragweed (ragweed; [15]): 0
Ragweed plant response rating (ragweed; [13]): 0
Plant response rating, Ryegrass, Italian (ryegrass, Italian; [14]): 0
Plant response rating, Ryegrass, Italian (ryegrass, Italian; [15]): 0
Ryegrass, Italian plant response rating (ryegrass, Italian; [13]): 30
Plant response rating, Foxtail, Giant (giant foxtail; [10]): 80
Plant response rating, Foxtail, Giant (giant foxtail; [11]): 90
Plant response rating, Foxtail, Giant (giant foxtail; [12]): 80
Foxtail, Giant plant response rating (giant foxtail; [13]): 90
Plant response rating, Pigweed (pigweed; [14]): 0
Plant response rating, Pigweed (pigweed; [15]): 0
Pigweed plant response rating (pigweed; [13]): 0
Plant response rating, Wheat (wheat): 0
Plant response rating, Corn (corn; [16]): 0
Plant response rating, Corn (corn; [17]): 0
Plant response rating, Blackgrass (blackgrass; [16]): 0
Plant response rating, Blackgrass (blackgrass; [17]): 0
Plant response rating, Galium (galium): 0
Plant response rating, Rice (rice [2]): 10
Plant response rating, Sedge, Umbrella (sedge, umbrella [3]): 0
Plant response rating, Ducksalad (ducksalad [4]): 90
Plant response rating, Barnyardgrass (barnyardgrass [5]): 85
Plant response rating, Rice (rice [6]; [18]): 0
Plant response rating, Rice (rice [6]; [19]): 0
Plant response rating, Rice (rice [6]; 500 g ai/ha, scale 0 to 100): 0
Plant response rating, Rice (rice [6]; 1000 g ai/ha, scale 0 to 100): 0
Plant response rating, Sedge, Umbrella (sedge, umbrella [7]; [18]): 0
Plant response rating, Sedge, Umbrella (sedge, umbrella [7]; [19]): 0
Plant response rating, Sedge, Umbrella (sedge, umbrella [7]; 500 g ai/ha, scale 0 to 100): 0
Plant response rating, Sedge, Umbrella (sedge, umbrella [7]; 1000 g ai/ha, scale 0 to 100): 0
Plant response rating, Ducksalad (ducksalad [8]; [18]): 50
Plant response rating, Ducksalad (ducksalad [8]; [19]): 60
Plant response rating, Ducksalad (ducksalad [8]; 500 g ai/ha, scale 0 to 100): 65
Plant response rating, Ducksalad (ducksalad [8]; 1000 g ai/ha, scale 0 to 100): 85
Plant response rating, Barnyardgrass (barnyardgrass [9]; [18]): 0
Plant response rating, Barnyardgrass (barnyardgrass [9]; [19]): 35
Plant response rating, Barnyardgrass (barnyardgrass [9]; 500 g ai/ha, scale 0 to 100): 40
Plant response rating, Barnyardgrass (barnyardgrass [9]; 1000 g ai/ha, scale 0 to 100): 55

CCc1cccc(C)c1N(C(=O)CCl)[C@@H](C)COC [S-metolachlor]
ZEAMD Obsd. (corn (ZEAMD); 31 g a.i./ha): 13
ZEAMD Obsd. (corn (ZEAMD); 125 g a.i./ha): 20
GLXMA Obsd. (soybean (GLXMA); 31 g a.i./ha): 18
GLXMA Obsd. (soybean (GLXMA); 125 g a.i./ha): 15
AMATA Obsd. (waterhemp (AMATA); 31 g a.i./ha): 0
AMATA Obsd. (waterhemp (AMATA); 125 g a.i./ha): 85
SETFA Obsd. (giant foxtail (SETFA); 31 g a.i./ha): 73
SETFA Obsd. (giant foxtail (SETFA); 125 g a.i./ha): 99

CC(C)N(C)S(=O)(=O)NC(=O)c1cc(-n2c(=O)cc(C(F)(F)F)n(C)c2=O)c(F)cc1Cl [Saflufenacil]
ZEAMD Obsd. (corn (ZEAMD); 1 g a.i./ha): 20
ZEAMD Obsd. (corn (ZEAMD); 31 g a.i./ha): 0
GLXMA Obsd. (soybean (GLXMA); 1 g a.i./ha): 0
GLXMA Obsd. (soybean (GLXMA); 31 g a.i./ha): 13
AMATA Obsd. (waterhemp (AMATA); 1 g a.i./ha): 0
AMATA Obsd. (waterhemp (AMATA); 31 g a.i./ha): 83
SETFA Obsd. (giant foxtail (SETFA); 1 g a.i./ha): 0
SETFA Obsd. (giant foxtail (SETFA); 31 g a.i./ha): 23
